Measurements reported in US6489307B1, “Antisense compositions targeted to β1-adrenoceptor-specific mRNA and methods of use” (University of Florida, priority 1998, dated 2002).
“And” between values parts separate entries of the source, which are not always exact repeats. Equal entries are not always repeated. “Also recorded” adds a separate entry of the source. Values belong to the molecule of their own block, whether it stands above or below them.

Assays:
MDA (lipid peroxidation) = assay: MDA levels in myocardium after ischemia-reperfusion; assay type: in vivo, Sprague-Dawley rats; conditions: pretreatment before ischemia-reperfusion; vs saline
Method: Malondialdehyde (MDA) levels in myocardium were measured in duplicate by a modification of the method of Ohkawa et al., (1979). Briefly, the ventricular tissues were homogenized. The assay mixture consisted of 0.1 ml of the tissue homogenate, 0.4 ml of 0.9% NaCl, 0.5 ml of 3% sodium dodecylsulfate, 3 ml of TBA (thiobarbituric acid reagent, containing equal parts of 0.8% aqueous thiobarbituric acid and acetic acid) and was heated for 75 min at 95° C. Thereafter, 1 ml cold 0.9% NaCl was added to the mixture, which was cooled and extracted with 5 ml n-butanol. After centrifugation at 3,000 rpm for 15 min, the butanol phase was assayed spectrophotometrically at 532 nm. Tetramethoxypropane (in amounts of 0, 0.1, 0.2, 0.4, 0.8, 1.0 nmole) served as external standard. MDA levels in myocardium were expressed in μmol/g tissue.

β1-AR mRNA = assay: RT-PCR of β1-AR mRNA in myocardium; assay type: in vivo, Sprague-Dawley rats; conditions: adjusted for GAPDH
Method: Total RNA was isolated from rat myocardium with the single step acid-guanidinum thiocyanate-phenol-chloroform method and quantified (Chomcznski and Sacchi, 1987). One μg of total RNA was reverse transcribed with oligo-dT (Promega) and M-MLV reverse transcriptase (Promega) at 37° C. for one hr. 1.5 μl of RT material was amplified with Taq DNA polymerase (Promega) using a primer pair specific to β1-AR:
PCR™ product was 432 base pairs. For PCR, 35 cycles were used at 95° C. for one minute, 60° C. for one minute, and 72° C. for one min. The RT-PCR™ amplified samples were visualized on 1.8% agarose gels using ethidium bromide. A primer pair of rat GAPDH was used as control:
For PCR™, 35 cycles were used at 95° C. for one min, 60° C. for one min, 72° C. for one min. PCR™ product was 504 base pairs. Relative intensity of bands of interest were analyzed by NSF-300G Scanner (Microtek) (Yang et al., 1998; Li et al., 1999).

SHRs [1] = assay type: in vivo, rat (SHR)
Method: (§1) Each rat cage was placed on a receiver (RLA 1020, Data Sciences, St. Paul, Minn.) for measurement of cardiovascular parameters. Data were collected with a computer-based data acquisition program (Dataquest Lab-PRO3.0; Data Sciences). BP and HR were measured every 10 min. and averaged every 1 to 24 hrs. Before treatment, SHRs were monitored for a week to get a stable baseline.
as §1, with “(RLA1020,” for “(RLA 1020,”, “Sciences)” for “Sciences, St. Paul, Minn.)”, “LabPRO3.0;” for “Lab-PRO3.0;”, “min” for “min.”, “hr.” for “hrs.”, “SHR” for “SHRs”

β1-AR protein = assay: Western blot of β1-AR protein in myocardium; assay type: in vivo, Sprague-Dawley rats; conditions: Western analysis
Method: Myocardial tissues were homogenized and lysed in boiling lysis buffer (1% SDS, 0.1% Triton X-100®, and 10 mmol/L Tris-HCl, pH 7.4) and centrifuged at 10,000 RPM for 30 minutes at 4° C. The lysate protein from myocardial tissues (20 μg/lane) was separated by 8% SDS-PAGE using a Bio-Rad Mini-Protean cell, transferred to nitrocellulose membrane (Amersham). After incubation in blocking solution (4% non-fat milk, Sigma), membranes were incubated with 1:1000 dilation primary antibody (polycolonal antibody to β1-AR, Santa Cruz Biotechnology) for overnight at 4° C. Membranes were washed and incubated with 1:2000 dilution second antibody (Amersham) for one hr. The membranes were detected with the ECL system, as described previously (Yang et al, 1998; Li et al., 1999).

isolated rat heart = assay: Isolated perfused heart model, myocardial ischemia-reperfusion; assay type: in vivo, Sprague-Dawley rats; conditions: 2 mg/kg 6 hr before
Method: Male Sprague-Dawley rats weighing 200-250 g were injected intravenously with either AS-ODNs (n=7) or IN-ODNs (n=7) at a dose of 200 μg/rat 4 days before excising the hearts. DOTAP/DOPE liposomes (700 μg/rat) were given along with ODNs.
The hearts were excised rapidly and placed in ice-cold Kreb-Henseleit buffer (mmol/L: NaCl 118, KCl 4.7, KH2PO4 1.2, MgSO4 1.2, CaCl2 1.25, NaHCO3 25, and glucose 11, pH 7.4). Within one min, the hearts were transferred to an isolated perfusion apparatus and perfused via the aorta with oxygen-saturated (95% O2+5% CO2) Kreb-Henseleit buffer kept at 37° C. with the use of a MasterFlex pump (model 7015-21, Cole-Palmer Instrument Co.) according to the modified Langendroff procedure (Yang et al., 1998; Neely and Rovetto, 1975). The heart was placed in a semi-closed circulating water-warmed (37° C.) air chamber, paced atrially with a Medtronic 5320 pacemaker at a rate of 300 bpm, and perfused at a constant flow (5.5-6.0 ml/per min). Coronary perfusion pressure (CPP) was measured via a catheter placed just proximal to the aorta and connected to a Gould Statham P23ID pressure transducer. A latex balloon filled with water and connected to a Gould Statham P23ID pressure transducer was inserted in the left ventricle through the left atrium to measure left ventricular end-diastolic pressure (LVEDP), left ventricular systolic pressure (LVSP), and developed left ventricular pressure (dLVP) (dLVP=LVSP−LVEDP). LVEDP during equilibration was set at 5 to 7 mmHg. All measurements were continuously recorded on a 4-channel record (Astro-Med).
Six hearts from saline-treated rats were continuously perfused with Kreb-Henseleit buffer for 80 min and served as sham control. Hearts from other rats, after 20 min of equilibration, were subjected to 30 min of ischemia followed by 30 min of reperfusion. After completion of the study, hearts were frozen in liquid-nitrogen for β1-AR analysis by binding assay, β1-AR protein analyses by Western blot, β1-AR mRNA analysis by reverse transcription-polymerase chain reaction (RT-PCR™), and measurement of MDA.
The protective effects of β1-AS-ODNs were tested in a rat model of myocardial ischemia-reperfusion. Five groups of SD rats were studied. Sham controls (n=6) were injected with saline and perfused continuously for 80 min without ischemia/reperfusion (I/R). In other groups, hearts were perfused for 20 min and subjected to global ischemia (30 min) followed by reperfusion (30 min). […] AS-ODN+I/R (n=7) or INV-ODN+I/R (n=7) were injected iv. with 1 mg/kg β1-AS-ODN or INV-ODN 4 days before the I/R study was performed.

SHRs [2] = assay: Telemetric monitoring of conscious SHRs during dobutamine infusion; assay type: in vivo, rat (SHR)
Method: Two days after catherization of the jugular vein, control values were taken and 1 mg/kg β1-AS-ODN was injected. 48 hr later, rats were tested for the effect of β1-AS-ODN. The rats were allowed to recover until all the cardiovascular parameters returned to control values. […] For β1-stimulation, SHRs were infused with dobutamine (β1-selective agonist) through a jugular vein catheter at 5, 10, 20, and 40 μg·kg^−1·min.^−1. Each dose was given for 5 min. continuously and at 1-hr intervals until all the cardiovascular parameters returned to baseline values so as to avoid the effect of tachyphylaxis. BP and HR were sampled every 1 min. dP/dtmax was calculated from the slope of the rising pulse-pressure curve and determined every 1 min. The difference between values at each dose and baseline was denoted as Δ.
Two days after catheterization of jugular vein, control values were taken and 1 mg/kg β1-AS-ODN was injected. Forty-eight hr later, rats were tested for the effect of β1-AS-ODN. The rats were allowed to recover until all the cardiovascular parameters returned to control values. […] For β1-stimulation, SHR were infused with dobutamine (β1-selective agonist) through jugular vein catheter at 5, 10, 20, 40 μg/kg/min. Each dose was given for 5 min continuously and at 1-hr intervals until all cardiovascular parameters returned to baseline so as to avoid the effect of tachyphylaxis. BP and HR were sampled every min. dP/dtmax was calculated from the slope of the rising pulse pressure curve and determined every min. The difference between values at each dose and baseline was denoted as Δ.

- bradycardia (SHRs [1]; rat, in vivo): appreciable bradycardia
Structure (SMILES): CC(C)NCC(O)COc1ccc(CC(N)=O)cc1 (stereo not shown) [atenolol, reference compound]
- increase in MDA levels in the myocardium (MDA (lipid peroxidation)): attenuated the increase
- increase of mRNA for β1-AR in myocardium (β1-AR mRNA): not significantly affected
- duration of hypotensive effect (SHRs [1]; 1 mg/kg i.v.): 10 h
- onset of hypotensive effect after injection (SHRs [1]; 1 mg/kg i.v.): 20 min
- duration of action (SHRs [1]; comparison with β1-AS-ODN): less than 1 day
- ischemia-reperfusion-mediated increase in β1-AR protein expression (β1-AR protein): no effect
- increase in CPP and LVEDP induced by ischemia-reperfusion (isolated rat heart): reduced the increase
- ischemia-reperfusion-induced change in LVSP and dLVP (isolated rat heart): modestly attenuated
- basal (resting) HR (SHRs [2]; 1 mg/kg, control 365±8): 295±12 bpm
- time until inotropic and chronotropic effects of dobutamine returned to control levels (SHRs [2]; after 1 mg/kg administration): ≤ 24 h

Structure (SMILES): CC(CCc1ccc(O)cc1)NCCc1ccc(O)c(O)c1 (stereo not shown) [Dobutamine, dobutamine]
- effect on SBP (SHRs [2]; higher infusion speed): reduced SBP; also recorded: reduced SPB
- elevation of SBP (SHRs [2]; low infusion speed): 5 to 8 mm Hg and 5-8 mm Hg
